Source: PubChem BioAssay (NCI)
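Interpolation was linear, between the two tested concentrations surrounding the appropriate level; five concentrations were tested over 48 hours in 96-well plates. GI50 marks 50% less growth. Definition used: TGI = concentration required for complete inhibition of growth.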

Columns and labels:
Experiment in all cases: DTP human tumour cell line panel, 48 h
A498 renal = test system: A498 renal
A549 NSCLC = test system: A549 NSCLC
CCRF-CEM leukemia = test system: CCRF-CEM leukemia
HCT-116 colon = test system: HCT-116 colon
HCT-15 colon = test system: HCT-15 colon
IGROV1 ovarian = test system: IGROV1 ovarian
LOX IMVI melanoma = test system: LOX IMVI melanoma
NCI-H23 lung = test system: NCI-H23 lung
OVCAR-3 ovarian = test system: OVCAR-3 ovarian
OVCAR-5 ovarian = test system: OVCAR-5 ovarian
RXF 393 renal = test system: RXF 393 renal
SF-268 CNS = test system: SF-268 CNS
SF-539 CNS = test system: SF-539 CNS
SN12C renal = test system: SN12C renal
SNB-19 CNS = test system: SNB-19 CNS
TK-10 renal = test system: TK-10 renal

CCN(CC)CCNCc1cc(Cl)cc2c1OCOC2
TGI (A498 renal): > 10 µM
TGI (A549 NSCLC): > 10 µM
TGI (CCRF-CEM leukemia): > 10 µM
TGI (HCT-116 colon): > 10 µM
TGI (HCT-15 colon): > 10 µM
TGI (IGROV1 ovarian): > 10 µM
TGI (LOX IMVI melanoma): > 10 µM
TGI (NCI-H23 lung): > 10 µM
TGI (OVCAR-3 ovarian): > 10 µM
TGI (OVCAR-5 ovarian): > 10 µM
TGI (RXF 393 renal): > 10 µM
TGI (SF-268 CNS): > 10 µM
TGI (SF-539 CNS): > 10 µM
TGI (SN12C renal): > 10 µM
TGI (SNB-19 CNS): > 10 µM
TGI (TK-10 renal): > 10 µM

COc1cccc(N2C(=O)C3c4[nH]c5ccc(C)cc5c4C4CCC(C(C)(C)C)CC4C3C2=O)c1 (stereo unspecified)
TGI (A498 renal): > 10 µM
TGI (A549 NSCLC): > 10 µM
TGI (CCRF-CEM leukemia): 7.57 µM
TGI (HCT-116 colon): 4.75 µM
TGI (HCT-15 colon): > 10 µM
TGI (IGROV1 ovarian): > 10 µM
TGI (LOX IMVI melanoma): 3.98 µM
TGI (NCI-H23 lung): 5.74 µM
TGI (OVCAR-3 ovarian): > 10 µM
TGI (OVCAR-5 ovarian): 7.81 µM
TGI (RXF 393 renal): 9.94 µM
TGI (SF-268 CNS): > 10 µM
TGI (SF-539 CNS): 7.41 µM
TGI (SN12C renal): > 10 µM
TGI (SNB-19 CNS): > 10 µM
TGI (TK-10 renal): > 10 µM

O=C(N/N=C/c1cc(Cl)cc(Cl)c1O)c1ccccc1O
TGI (A498 renal): 40.6 µM
GI50 (A549 NSCLC): 1.45 µM
TGI (A549 NSCLC): 15.8 µM
TGI (CCRF-CEM leukemia): > 100 µM
GI50 (HCT-116 colon): 2.48 µM
TGI (HCT-116 colon): 14.5 µM
TGI (HCT-15 colon): 15.7 µM
TGI (IGROV1 ovarian): 19.2 µM
TGI (LOX IMVI melanoma): 24.9 µM
GI50 (NCI-H23 lung): 2.69 µM
TGI (OVCAR-3 ovarian): 1.65 µM
TGI (OVCAR-5 ovarian): 7.82 µM
TGI (RXF 393 renal): 4.97 µM
TGI (SF-268 CNS): 30.8 µM
GI50 (SF-539 CNS): 1.75 µM
TGI (SF-539 CNS): 6.69 µM
TGI (SN12C renal): 23.3 µM
TGI (SNB-19 CNS): 43.7 µM
TGI (TK-10 renal): 70.3 µM
